Test results reported in PubChem BioAssay (NCI).
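In this assay, cells in 96-well plates receive the compound at five concentrations for 48 hours. Endpoints are linearly interpolated between the surrounding concentrations. TGI is the concentration that stops growth completely.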

How the values were obtained:
Experiment in all cases: growth of human tumour cells (NCI), 48 h
A498 renal = tested on: A498 renal
A549 NSCLC = tested on: A549 NSCLC
HOP-62 NSCLC = tested on: HOP-62 NSCLC
KM12 colon = tested on: KM12 colon
MALME-3M melanoma = tested on: MALME-3M melanoma
NCI-H522 lung = tested on: NCI-H522 lung
SK-OV-3 ovarian = tested on: SK-OV-3 ovarian
U251 CNS = tested on: U251 CNS
UACC-257 melanoma = tested on: UACC-257 melanoma
UO-31 renal = tested on: UO-31 renal

Row | Structure (SMILES) | TGI (A498 renal) [µM] | TGI (A549 NSCLC) [µM] | TGI (HOP-62 NSCLC) [µM] | TGI (KM12 colon) [µM] | TGI (MALME-3M melanoma) [µM] | TGI (NCI-H522 lung) [µM] | TGI (SK-OV-3 ovarian) [µM] | TGI (U251 CNS) [µM] | TGI (UACC-257 melanoma) [µM] | TGI (UO-31 renal) [µM]
1 | O=c1[nH]/c(=C/c2ccc(OCc3ccccc3)cn2)c(=O)[nH]/c1=C/c1cccnc1 | 6.46 | > 100 | > 100 | > 36.8 | > 27.6 | 0.588 | > 100 | > 100 | > 100 | 
2 | CC1(C)CC(=O)C2=C(C1)OC1=C(CC(C)(C)CC1=O)C2c1ccccc1Cl (centres undefined) | > 100 | > 100 | > 100 |  | > 100 | > 100 | > 100 | > 100 | > 100 | 3.67
3 | C[N+](C)([O-])Cc1cccc(NC(=O)c2ccc(C(=O)Nc3cccc(C[N+](C)(C)[O-])c3)cc2)c1 |  | > 100 | > 100 | > 100 | > 100 | > 100 | > 100 | > 100 | > 100 | > 100
4 | Nc1c2ccccc2nc2ccc(C(=O)Nc3ccc(S(N)(=O)=O)cc3)cc12 |  | > 100 | > 100 | > 100 | > 100 | > 100 | > 100 | > 100 | > 100 | > 100
5 | C[N+]12C=CC=C1C(N1CCCC1)c1sc(-c3ccc(Cl)cc3)cc12 (centres undefined) | 41.4 | 87.6 | 31.3 | 33.4 | 31.1 | 27 | 32.8 | 24.5 | 28.9 | > 100
6 | CC(C)CCC[C@@H](C)[C@H]1CC[C@H]2[C@@H]3CC=C4CC(OCCCCN(O)CCCSC5OC(CO)C(O)C(O)C5O)CC[C@]4(C)[C@H]3CC[C@]12C (some centres undefined) | > 100 | > 100 | > 100 | > 100 |  | 49.6 | > 100 | 75.1 | > 100 | > 100
7 | CN(C)/C=C/c1ccnc2c1C(=O)c1ccccc1C2=O | > 85.6 | > 56.7 | 62.6 | > 64.2 | 5.09 | 24.2 | > 100 | 49.7 | 6.19 | 43.6
8 | COc1cc2c(cc1C)NC(=O)/C2=C/c1c(Cl)n(C)c2ccccc12 | 21.5 | 42 | 29.5 | 16.6 | 22.5 |  | 39.8 | 28 | 34.7 | 22.9
9 | CCCCCCCCCCCCCCCCCc1nc(C#N)c(N)o1 | > 100 | > 100 | > 100 | > 100 |  |  | > 100 | > 100 | > 100 | 
10 | CCC1OC(=O)C(C)C(OC2CC(C)(O)C(O)C(C)O2)C(C)C(O)C(C)(O)CC(C)C(=O)C(C)C(O)C1C (centres undefined) | > 300 | > 300 | > 300 | > 300 | > 300 | > 300 | > 300 | > 300 | > 300 | > 300
11 | CC(C)(C)OC(=O)N(CCCN)CCCCN(CCCN)C(=O)OC(C)(C)C | > 100 | > 100 | > 100 | > 100 |  | > 100 | > 100 | > 100 | > 100 | > 100
12 | Cc1ccc(-c2c(C#N)c(O)n(NS(=O)(=O)c3ccccc3)c(=O)c2C#N)cc1 | > 100 | > 100 | > 100 | > 100 | > 100 | > 100 | > 100 | > 100 | > 100 | 
13 | CCN1CCc2sc3[nH]c(=S)n(C)c(=O)c3c2C1 | > 100 | > 100 | > 100 | > 100 | > 100 | > 100 | > 100 | > 100 | > 100 | > 100
14 | CC(C)NC(=O)OCc1c(COC(=O)NC(C)C)c(-c2ccc[n+](COC(=O)C3CCCCC3)c2)n2c1CCC2 | 87.5 | > 100 | > 100 | > 100 | > 100 | 58 | > 100 | > 100 | > 100 | > 100
15 | CC1=CC(=O)C[C@]2(C)[C@@H](O)CC(C(C)CO)C[C@@H]12 (some centres undefined) | > 100 | > 100 | > 100 | > 100 |  |  | > 100 | > 100 | > 100 | > 100
16 | CCOc1c(OC)cc(CNNc2nccs2)cc1OC | > 100 | > 100 | > 100 | > 100 | > 100 | > 100 |  | > 100 | > 100 | > 100
17 | c1ccc(C2(c3cc4ccccc4[nH]3)OCCO2)cc1 | > 100 | > 100 |  | > 100 |  |  | > 100 | > 100 | 99.8 | > 100
18 | O=C1c2ccccc2C(=O)c2c1c1cc(O)ccc1n2Cc1ccc(Cl)cc1Cl | 38.1 | 13.3 | 9.88 | > 100 | 63.9 |  | 13.8 | 12.2 | 69.9 | 37.9
19 | C=CCn1c(=O)c(-c2ccccc2)c(O)c2ccccc21 | > 100 | > 100 | > 100 | > 100 | > 100 | > 100 |  | > 100 | > 100 | > 100
20 | Cc1cccc2ns[s+]c12 | > 100 | > 100 | > 100 | > 100 | > 100 |  | > 100 | > 100 | > 100 | > 100
21 | O=C(N/N=C/c1cc(-c2ccccc2Cl)c(-c2ccccc2Cl)o1)c1ccncc1 | > 100 | > 100 | > 100 |  | > 100 | > 100 | > 100 |  | > 100 | 
22 | COC[C@@H](N=Cc1ccc(OC)cc1)C(C)C |  | > 100 | > 100 | > 100 | > 100 | > 100 | > 100 | > 100 | > 100 | > 100
23 | COc1cc(NS(C)(=O)=O)ccc1N1Cc2cnc3ccc4[nH]ccc1c4c23 | > 100 | > 100 | > 100 | > 100 |  | > 100 |  | > 100 | > 100 | > 100
